Results reported in patent publication US20110207722A1, “TREATMENT OF ANXIETY DISORDERS” (N[…]/S, priority 2008, published 2011).

System: Mice
Assay: Marble burying test
Type: in vivo, mouse
Conditions: Compound I 0.05 mg/kg orally 60 min before testing; diazepam 0.03-0.3 mg/kg i.p. 30 min before testing; 30 min test session; n=8
Protocol: FIGS. 1 and 2 show the effect of the compound exo-7-(8-H-8-aza-bicyclo[3.2.1]oct-3-yloxy)-chromen-2-one (Compound I or Cp I) and diazepam, respectively, in the mouse marble burying test. Compound I (0.05-0.2 mg/kg) was administered orally 60 min before testing. Diazepam (0.1-1 mg/kg) was injected via the intraperitoneal (i.p.) route 30 min before testing. *P<0.05, ***P<0.001 vs. vehicle-treated group (Student's t-test, n=8).
Compound I (0.05 mg/kg) was administered orally 60 min before testing. Diazepam (0.03-0.3 mg/kg) was injected via the intraperitoneal (i.p.) route 30 min before testing. Paroxetine (10 mg/kg, i.p., −30 min) served as a positive control. *P<0.05, **P<0.01 vs. vehicle-treated group (Student's t-test, n=8).
Mice were placed for 30 min in novel cages (one mouse per cage, 20×30 cm) in which there were 20 glass marbles (15 mm in diameter) situated in four rows of five placed on top of 5 cm of sawdust. […]

O=c1ccc2ccc(O[C@@H]3C[C@H]4CC[C@@H](C3)N4)cc2o1 [Compound I, exo-7-(8-H-8-aza-bicyclo[3.2.1]oct-3-yloxy)-chromen-2-one]
effect on the activity of diazepam in the mouse marble burying test (number of glass marbles buried): augments the activity of diazepam
